The values below come from ChEMBL document CHEMBL1949520, “Synthesis of terphenyl benzimidazoles as tubulin polymerization inhibitors” (2012).

What all share (format): functional
The subject of test [1] is HOP-62. Put plainly: Growth inhibition of human HOP62 cells by SRB assay.
Test [2] is described as follows: Growth inhibition of human DWD cells by SRB assay. (The SRB assay estimates cell density from bound dye.)
Test [3] deals with SiHa. The test is described as follows: Growth inhibition of human SiHa cells by SRB assay.
Test [4] relates to MCF7. The test is described as follows: Growth inhibition of human MCF7 cells by SRB assay.
Test [5] has as its system A2780. Put plainly: Growth inhibition of human A2780 cells by SRB assay.
Test [6] concerns A549. The test is described as follows: Growth inhibition of human A549 cells by SRB assay.
Test [7] has as its system ZR-75-1. Put plainly: Growth inhibition of human ZR-75-1 cells by SRB assay.
Test [8] deals with PC-3. The test is described as follows: Growth inhibition of human PC3 cells by SRB assay.
Test [9] deals with KB. Put plainly: Growth inhibition of human KB cells by SRB assay.
Test [10] in a line: Growth inhibition of human Gurav cells by SRB assay.
Test [11] has as its system COLO 205. Put plainly: Growth inhibition of human COLO205 cells by SRB assay.

One may read the GI50 as the concentration giving 50% growth inhibition. A low value points to greater sensitivity of the cells.

Regarding `COc1ccc(-c2ccc(-c3ccc(-c4nc5cc(C)ccc5[nH]4)cc3)cc2)cc1OC`, the 50% growth inhibitory concentration (GI50) in [1] is 2.12 µM; in [2], 1.72 µM; in test [3], 3.51 µM; in test [4], 0.19 µM; in test [5], 2.13 µM; in [6], 2.1 µM. For the same compound, the concentration for 50% growth inhibition (GI50) turned out to be 3.1 µM in test [7]; 2.56 µM in [8]; 2.19 µM in test [9]; 1.31 µM in [10]; 2.32 µM in test [11].
As for `Cc1ccc2[nH]c(-c3ccc(-c4ccc(-c5cccc(Cl)c5)cc4)cc3)nc2c1`, the GI50 came out at 2.74 µM in test [1]; 2.51 µM in [2]; 3.6 µM in test [3]; 1.21 µM in test [4]; 2.8 µM in test [5]; 2.8 µM in test [6]. In addition, the concentration for 50% growth inhibition (GI50) came out at 3.45 µM in test [7]; 2.67 µM in test [8]; 2.26 µM in test [9]; 2.12 µM in [10]; 2.78 µM in test [11].
`Cc1ccc2[nH]c(-c3ccc(-c4ccc(-c5ccc(N(C)C)cc5)cc4)cc3)nc2c1`: the 50% growth inhibitory concentration (GI50) came out at 4.23 µM in test [1]; 3.23 µM in [2]; 7.11 µM in test [3]; 3.13 µM in test [4]; 2.21 µM in test [5]; 3.51 µM in [6]. Moreover, the 50% growth inhibitory concentration (GI50) in [7] was 7.2 µM; in [8] it was 8.12 µM; in test [9], 6.24 µM; in test [10], 6.24 µM; in test [11] it was 9.21 µM.
In the case of `FC(F)(F)Oc1ccc(-c2ccc(-c3ccc(-c4nc5ccccc5[nH]4)cc3)cc2)cc1`, the GI50 stood at 100 µM in test [1]; 100 µM in test [2]; 38.4 µM in test [3]; 38.4 µM in test [4]; 100 µM in [5]; 38 µM in [6]. Also, the GI50 worked out at 100 µM in test [7]; 100 µM in test [8]; 39.1 µM in test [9]; 100 µM in test [10]; 100 µM in [11].
`Cc1ccc2[nH]c(-c3ccc(-c4ccc(-c5ccc(C(F)(F)F)cc5)cc4)cc3)nc2c1`: the concentration for 50% growth inhibition (GI50) was 24.2 µM in test [1]; 38.2 µM in [2]; 33.2 µM in test [3]; 31 µM in test [4]; 12.3 µM in test [5]; 3.52 µM in test [6]. Further, the GI50 stood at 2.41 µM in test [7]; 2.01 µM in [8]; 41.2 µM in test [9]; 12 µM in test [10]; 30.6 µM in test [11].
Turning to `CN(C)c1ccc(-c2ccc(-c3ccc(-c4nc5c(O)cccc5[nH]4)cc3)cc2)cc1`, the 50% growth inhibitory concentration (GI50) is 8.25 µM in test [1]; 9.21 µM in [2]; 6.24 µM in test [3]; 2.31 µM in test [4]; 3.01 µM in [5]; 7.1 µM in test [6]. For the same compound, the GI50 in [7] is 4.1 µM; in [8], 8.42 µM; in test [9] it was 4.2 µM; in [10], 8.21 µM; in [11], 6.32 µM.
With `Oc1cccc2[nH]c(-c3ccc(-c4ccc(-c5ccc(C(F)(F)F)cc5)cc4)cc3)nc12`, the GI50 is 3.2 µM in test [1]; 3.18 µM in [2]; 3.72 µM in [3]; 2.31 µM in test [4]; 6.1 µM in test [5]; 3.61 µM in test [6]. Also, the GI50 stood at 5.11 µM in test [7]; 2.26 µM in [8]; 4.32 µM in test [9]; 3.19 µM in test [10]; 3.41 µM in test [11].
For the compound `Cc1ccc2[nH]c(-c3ccc(-c4ccc(-c5ccc(OC(F)(F)F)cc5)cc4)cc3)nc2c1`, the GI50 in test [1] turned out to be 24.2 µM; in test [2], 41.1 µM; in [3] it was 28.3 µM; in [4] it was 31 µM; in test [5], 12.3 µM; in test [6] it was 3.56 µM. In addition, the concentration for 50% growth inhibition (GI50) in [7] came to 2.41 µM; in test [8], 2.01 µM; in [9] it was 41.2 µM; in [10], 11 µM; in [11] it was 30.6 µM.
On to `COc1cc(-c2ccc(-c3ccc(-c4nc5ccccc5[nH]4)cc3)cc2)cc(OC)c1OC`, for which the 50% growth inhibitory concentration (GI50) in test [1] came out at 9.43 µM; in [2] it was 8.01 µM; in test [3] it was 4.98 µM; in test [4], 6.38 µM; in test [5] it was 9.21 µM; in test [6], 2.11 µM. For the same compound, the GI50 in test [7] amounted to 9.71 µM; in test [8] it was 9.72 µM; in test [9] it was 2.98 µM; in test [10], 7.1 µM; in test [11], 8.32 µM.
In the case of `Fc1ccc(-c2ccc(-c3ccc(-c4nc5ccccc5[nH]4)cc3)cc2)cc1`, the concentration for 50% growth inhibition (GI50) worked out at 39.3 µM in test [1]; 35.6 µM in test [2]; 29.7 µM in [3]; 36.2 µM in [4]; 48.2 µM in [5]; 33.2 µM in [6]. Moreover, the concentration for 50% growth inhibition (GI50) amounted to 100 µM in test [7]; 41.2 µM in test [8]; 41.3 µM in [9]; 100 µM in [10]; 100 µM in test [11].
Take `COc1cccc2c1C(=O)c1c(O)c3c(c(O)c1C2=O)C[C@@](O)(C(=O)CO)C[C@@H]3O[C@H]1C[C@H](N)[C@H](O)[C@H](C)O1` [DOXORUBICIN]: the GI50 in test [1] came to 0.14 µM; in test [2], 0.1 µM; in test [3], 0.14 µM; in test [4], 0.17 µM; in [5], 0.16 µM; in test [9], 0.17 µM. In addition, the GI50 turned out to be 0.17 µM in test [10] and 0.14 µM in [11].
Take `CN(C)c1ccc(-c2ccc(-c3ccc(-c4nc5ccccc5[nH]4)cc3)cc2)cc1`: the GI50 amounted to 100 µM in test [1]; 100 µM in [2]; 100 µM in [3]; 41.2 µM in test [4]; 100 µM in test [5]; 30.1 µM in [6]. Besides, the GI50 in test [7] is 100 µM; in [8] it was 100 µM; in test [9] it was 39.3 µM; in test [10] it was 100 µM; in test [11], 100 µM.
In the case of `Cc1ccc2[nH]c(-c3ccc(-c4ccc(-c5ccc(F)cc5)cc4)cc3)nc2c1`, the concentration for 50% growth inhibition (GI50) amounted to 33.5 µM in [1]; 33.1 µM in test [2]; 41 µM in test [3]; 30.2 µM in [4]; 24.6 µM in test [5]; 6.03 µM in test [6]. The GI50 in test [7] came out at 35 µM; in test [8], 100 µM; in test [9], 24.9 µM; in test [10], 16.5 µM; in test [11], 100 µM.
As for `Clc1cccc(-c2ccc(-c3ccc(-c4nc5ccccc5[nH]4)cc3)cc2)c1`, the concentration for 50% growth inhibition (GI50) was 100 µM in test [1]; 100 µM in test [2]; 100 µM in [3]; 36.3 µM in [4]; 31.1 µM in [5]; 31.1 µM in [6]. Also, the GI50 in [7] was 41.2 µM; in test [8], 33.7 µM; in test [9] it was 32.3 µM; in test [10], 2.19 µM; in [11], 100 µM.
With `Oc1cccc2[nH]c(-c3ccc(-c4ccc(-c5cccc(Cl)c5)cc4)cc3)nc12`, the GI50 stood at 2.26 µM in test [1]; 2.1 µM in test [2]; 8.4 µM in test [3]; 3.42 µM in test [4]; 2.8 µM in test [5]; 2.4 µM in test [6]. The 50% growth inhibitory concentration (GI50) in [7] was found to be 2.41 µM; in [8], 2.56 µM; in test [9], 2.28 µM; in test [10] it was 2.31 µM; in test [11], 8.6 µM.
With `Oc1cccc2[nH]c(-c3ccc(-c4ccc(-c5ccc(F)cc5)cc4)cc3)nc12`, the GI50 in test [1] was 8.31 µM; in test [2], 22.2 µM; in test [3], 9.1 µM; in test [4], 3.01 µM; in [5] it was 41.2 µM; in [6] it was 0.17 µM. In addition, the concentration for 50% growth inhibition (GI50) was 6.32 µM in test [7]; 15.3 µM in test [8]; 6.92 µM in [9]; 2.86 µM in test [10]; 1.22 µM in test [11].
As for `Cc1ccc2[nH]c(-c3ccc(-c4ccc(-c5ccccc5)cc4)cc3)nc2c1`, the GI50 in test [1] is 39.3 µM; in [2], 28.3 µM; in [3], 35.2 µM; in test [4] it was 31.6 µM; in [5] it was 41.2 µM; in [6] it was 3.63 µM. Further, the GI50 is 27.4 µM in test [7]; 100 µM in [8]; 32.1 µM in test [9]; 3.31 µM in test [10]; 2.56 µM in test [11].
Consider `COc1ccc(-c2ccc(-c3ccc(-c4nc5c(O)cccc5[nH]4)cc3)cc2)cc1`, for which the GI50 came to 3.21 µM in test [1]; 6.4 µM in test [2]; 4.8 µM in test [3]; 3.11 µM in [4]; 8.64 µM in [5]; 7.69 µM in [6]. Moreover, the concentration for 50% growth inhibition (GI50) in test [7] stood at 8.2 µM; in test [8], 6.61 µM; in test [9], 4.9 µM; in test [10], 6.63 µM; in test [11] it was 1.63 µM.
With `Oc1cccc2[nH]c(-c3ccc(-c4ccc(-c5ccc(OC(F)(F)F)cc5)cc4)cc3)nc12`, the GI50 came out at 2.27 µM in test [1]; 3.1 µM in test [2]; 8.41 µM in test [3]; 2.21 µM in test [4]; 2.9 µM in test [5]; 0.19 µM in [6]. Further, the GI50 in test [7] is 3.8 µM; in test [8], 7.41 µM; in test [9] it was 3.31 µM; in [10] it was 3.6 µM; in test [11], 8.32 µM.
